# Measured values from PMC6289942, “Development of a NS2B/NS3 protease inhibition assay using AlphaScreen® beads for screening of anti-dengue activities” (Heliyon, 2018).
# Read-outs that look alike come from different tables or passages of the source. Where a SMILES comes first, the peptide text is derived from it. [ ]: non-standard residue; d: D form. The star is where a group is joined. Sta = CC(C)C[C@H](N)[C@@H](O)CC(=O)O; Isovaleryl = CC(C)CC(=O)*
# Columns and labels:
# [1] = Solubility of compounds for screening (DMSO stock); format: physicochemical; conditions: needed 10% v/v DMSO in the assay
# dengue NS2B/NS3 protease = test system: dengue NS2B/NS3 protease; set-up: method as in PMID 11581268; conditions: cited from earlier work
# NS2B/NS3 protease [2] = target: T1, NS2B/NS3 protease (Dengue virus type 2, UniProt P14340); assay: Protease assay using fluorogenic peptide substrate (BOC-Gly-Arg-Arg-AMC); format: biochemical
# T1 construct: active site of the serine protease domain of the NS2B/NS3 protease; made in house; host or cells: Escherichia coli XL 1-Blue MRF
# T1 sequence (P14340 1476-1653): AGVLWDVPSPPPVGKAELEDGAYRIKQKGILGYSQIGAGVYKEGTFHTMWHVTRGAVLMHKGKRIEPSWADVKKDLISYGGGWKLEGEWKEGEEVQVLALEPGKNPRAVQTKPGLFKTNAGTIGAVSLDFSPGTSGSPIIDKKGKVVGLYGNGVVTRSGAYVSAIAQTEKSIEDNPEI
# T1 sequence (P14340 1346-1475): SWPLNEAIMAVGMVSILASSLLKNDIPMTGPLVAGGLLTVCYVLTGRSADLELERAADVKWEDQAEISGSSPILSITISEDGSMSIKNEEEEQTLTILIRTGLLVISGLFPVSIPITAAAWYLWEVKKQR
# Protocol: Dengue NS2B/NS3 protease enzyme was expressed and purified as previously described. Briefly, NS2B/NS3 expression plasmid was propagated in Escherichia coli strain XL 1-Blue MRF (Agilent Technologies, Santa Clara, CA).The enzyme was isolated and purified using Ni^2+-NTA (nickel-nitrilotriacetic acid) resin-based column. The specific proteolytic activity of NS2B/NS3 protease was determined using similar formula as published for other proteases. Protease assay using fluorogenic peptide susbtrate (BOC-Gly-Arg-Arg-AMC) was also used to determine the NS2B/NS3 inhibition activities of the controls and derivatives. […] Cleavage of the substrate by NS2B/NS3 protease and detection of the fluorescence signal were determined using Envision 2104 Multilabel Plate Reader (Perkin Elmer, Boston, MA, USA) at excitation and emission wavelength of 385 nm and 465 nm, respectively. […]
# IC50 values were derived based on non-linear regression analysis computed using GraphPad Prism 5.0 (GraphPad Software, La Jolla, CA, USA). […] The zʹ factor was calculated as described by Zhang and co-workers. zʹ factor = 1–3×(σH+σL)/|μH−μL|, where σH and σL represent the standard deviations of the AlphaScreen® signal of the substrate in the absence (high signal, H) and presence (low signal, L) of the protease, and μH and μL represent the mean values of high signal and low signal, respectively. […]
# NS2B/NS3 protease [3] = target: T1, NS2B/NS3 protease; assay: NS2B/NS3 protease inhibition assay using AlphaScreen beads; format: biochemical
# Protocol: The peptide substrate used in this assay has a known NS2B/NS3 cleavage site between lysine (K), and serine (S) (GRK ↓ SLT), and is a part of a sequence of dengue polyprotein precursor (NS3/NS4A) as reported by Khumtong and co-workers. The peptide substrate was tagged with a specific sequence ([…]) at N-terminal and polyhistidine at C-terminal. This specific sequence has a binding affinity towards StrepTactin®, an engineered streptavidin [37]. Glycine linkers were added on both sides of untagged peptide substrate (Fig. 1a and b). To determine the extent of N-terminal labelling on the peptide substrate, competitive displacement assay using AlphaScreen® TruHits Detection Kit (Perkin Elmer, USA) consisting of StrepTactin® donor beads and biotinylated acceptor beads was carried out. On the other hand, to ensure that the peptide substrate is adequately tagged with polyhistidine on the C-terminal, competitive binding assay using Histidine (Nickel Chelate) Detection Kit (Perkin Elmer, USA) was carried out. This kit comprises of both StrepTactin® donor beads and nickel chelate acceptor beads.
# In general, AlphaScreen® experiments were carried out in white 384-well plates (Perkin Elmer, Boston, MA, USA) in a total reaction volume of 25 μL under subdued light. […] The 384-well plate was read using Envision 2104 Multilabel Plate Reader (Perkin Elmer, Boston, MA, USA) according to AlphaScreen® settings (excitation and emission wavelength at 680nm and 520-620nm, respectively). […] After incubating for 1 h, 5 μL of donor beads and acceptor beads were added, followed by 1 h incubation at room temperature prior to reading of signal. […] The optimum conditions were determined based on the maximum signal obtained from well containing peptide alone and minimum signal produced by well containing peptide substrate, enzyme and beads, indicating maximum cleavage of the NS2B/NS3 enzyme on the substrate and lowest background signal. […] Since the amount obtained for diversity 0713 was in minute quantity and was insufficient for subsequent testing, diversity 0713 was not used as control in this study. […]
# DENV2 protease = test system: DENV2 protease; set-up: method as in PMID 16621533; conditions: cited from earlier work; for inhibition of protease activity: 80 ppm (200 μM) ref 21; for Ki: protease assay ref 21
molecule,measurement,setting,value
"c1ccc(CSc2nc(N(Cc3ccccc3)Cc3ccccc3)nc3c2ncn3Cc2ccccc2)cc1 [Compound 11, N, N, 9-tribenzyl-6-(benzylsulfanyl)-9H-purin-2-amine]",solubility (in words),[1],low solubility
O=S(=O)(F)Cc1ccccc1 [phenylmethylsulfonyl fluoride],enzyme inhibition (in words),dengue NS2B/NS3 protease,no enzyme inhibition
Cc1ccc(S(=O)(=O)N[C@@H](CCCCN)C(=O)CCl)cc1.Cl [N-Tosyl-L-lysine chloromethyl ketone.hydrochloride],enzyme inhibition (in words),dengue NS2B/NS3 protease,no enzyme inhibition
Cl.N=C(N)c1ccc(CS(=O)(=O)F)cc1 [4-Amidinophenylmethanesulfonyl fluoride.hydrochloride],enzyme inhibition (in words),dengue NS2B/NS3 protease,no enzyme inhibition
Cc1ccc(S(=O)(=O)N[C@@H](Cc2ccccc2)C(=O)CCl)cc1 [N-Tosyl-L-phenylalanine chloromethyl ketone],inhibition of enzyme,dengue NS2B/NS3 protease; 1 mM ref 59,20–30%
"Nc1nc(SCc2ccccc2)c2[nH]cnc2n1 [Compound 8, 6-(benzylsulfanyl)-9H-purin-2-amine]",solubility (in words),[1],low solubility
N=C(N)c1ccccc1 [benzamidine],enzyme inhibition (in words),dengue NS2B/NS3 protease,no enzyme inhibition
CC(C)CC(=O)N[C@H](C(=O)N[C@H](C(=O)N[C@@H](CC(C)C)[C@@H](O)CC(=O)N[C@@H](C)C(=O)N[C@@H](CC(C)C)[C@@H](O)CC(=O)O)C(C)C)C(C)C [pepstatin A] (Isovaleryl-VV[Sta]A[Sta]-OH),enzyme inhibition (in words),dengue NS2B/NS3 protease,no enzyme inhibition
Aprotinin,IC50,"dengue NS2B/NS3 protease; published value, different assay system ref 59",0.065 µM
same,IC50,"NS2B/NS3 protease [2]; protease assay, fluorogenic substrate, 1 h at 37 °C, read-out: IC50",0.15 µM
same,IC50,"NS2B/NS3 protease [3]; AlphaScreen assay, read-out: IC50",0.35 µM
"Fc1ccc(C=Nc2nc(S)c3nc[nH]c3n2)cc1 [Compound 12, 2-(4-fluorobenzylideneamino)-9H-purine-6-thiol]",solubility (in words),[1],low solubility
CC(=O)N[C@@H](CC(C)C)C(=O)N[C@@H](CC(C)C)C(=O)N[C@H](C=O)CCCNC(=N)N [leupeptin],enzyme inhibition (in words),dengue NS2B/NS3 protease,no enzyme inhibition
COc1cc(O)c(C(=O)[C@@H]2[C@H](CC=C(C)C)C(C)=CC[C@H]2c2ccccc2)c(O)c1 [Panduratin A],inhibition of protease activity,DENV2 protease,65–80%
same,Ki,DENV2 protease,25 µM
same,IC50,NS2B/NS3 protease [2],211 µM
same,IC50,NS2B/NS3 protease [3],> 100 µM
same,inhibition at 100 µM,"NS2B/NS3 protease [3]; 100 μM, AlphaScreen assay, read-out: maximum inhibition at the highest concentration tested",> 50%
"c1ccc(CNc2nc(SCc3ccccc3)c3ncn(Cc4ccccc4)c3n2)cc1 [Compound 10, N, 9-dibenzyl-6-(benzylsulfanyl)-9H-purin-2-amine]",solubility (in words),[1],low solubility
CC(C)=CC[C@@H]1C(C)=CC[C@@H](c2ccccc2)[C@@H]1C(=O)c1c(O)cc(O)cc1O [4-hydroxypanduratin A],inhibition of protease activity,DENV2 protease,65–80%
same,Ki,DENV2 protease,21 µM
Cl.NCCc1ccc(S(=O)(=O)F)cc1 [4-(2-aminoethyl) benzenesulfonyl fluoride.hydrochloride],inhibition of enzyme,dengue NS2B/NS3 protease; 500 μM ref 59,20–30%
"Nc1nc(SCc2ccccc2)c2ncn(Cc3ccccc3)c2n1 [Compound 9, 9-benzyl-6-(benzylsulfanyl)-9H-purin-2-amine]",solubility (in words),[1],low solubility
"soybean trypsin inhibitor: serine protease inhibitor (protein, UniProt P01070 25-205, looked up) Trypsin inhibitor A: DFVLDNEGNPLENGGTYYILSDITAFGGIRAAPTGNERCPLTVVQSRNELDKGIGTIISSPYRIRFIAEGHPLSLKFDSFAVIMLCVGIPTEWSVVEDLPEGPAVKIGENKDAMDGWFRLERVSDDEFNNYKLVFCPQQAEDDKCGDIGISIDHDDGTRRLVVSKNKPLVVQFQKLDKESL",enzyme inhibition (in words),dengue NS2B/NS3 protease,no enzyme inhibition
